Test results taken from paper PMC10643470, “Knockout or inhibition of USP30 protects dopaminergic neurons in a Parkinson’s disease mouse model” (Nature Communications, 2023).
Where “and” joins values, the source holds several entries; their conditions need not be identical. Equal values may be shown once. Read-outs that look alike come from different tables or passages of the source.

Key:
[1] = target: USP12/UAF1 (Homo sapiens, UniProt O75317); assay: DUB/cathepsin selectivity biochemical assay
[2] = Mouse exploratory toxicology; assay type: in vivo; settings: two weeks of dosing, dose levels up to 300 mg/kg/day
[3] = tested on: AAV-A53T-SNCA PD mouse model; assay: Iba1/GFAP immunostaining in SNpc, AAV-A53T-SNCA mouse model (compound study); assay type: in vivo; set-up: key to Figure S7a immunostaining, Left / Figure S7a immunostaining, Right: % stained area = stained area / region area × 100
Source text: (§1) For the compound study, the fixed, cryoprotected and frozen midbrain samples were sectioned as coronal sections at 100 µm intervals through SNpc and ventral tegmental area (VTA) and mounted on glass slides. Sectioning was started at −2.6 mm from bregma and continued to −3.7 mm from bregma in the AP axis (coordinates based on Franklin & Paxinos: The Mouse Brain in Stereotaxic Coordinates). For the immunostaining, the sections were stained with anti-TH following permeabilization. The stained sections were scanned with the Olympus VS120 slide scanner and analyzed with a VIS-Visiopharm Integrator System (Visiopharm, Denmark) by a blinded data analyst. All cells of interest with visible nuclei were labeled manually and counted using an APP (Analysis Protocol Package), scaled by section thickness and sectioning interval to estimate the total cell population in the SNpc. For immunostaining of Ser129 αSyn phosphorylation, TSA amplification was used with primary antibody ab51253 (Abcam). Blinded analysis was used, and positive cells per area were determined. For dual IF IHC of Iba1 (WAKO) and GFAP (ab4674 – Abcam), the stained sections were scanned and analyzed by a blinded data analyst. Analysis determines the percentage of positive staining area [%area = (stained area/region area) * (100)]. To calculate % of stained area, the same threshold value was applied to all sections with the same antibody staining. All pixels above the threshold value were considered positive. All striatal densitometry and neuronal counting data for both KO and inhibitor studies were obtained by an investigator blinded to genotype and treatment.

[4] = target: T1, mouse USP30 (Mus musculus, UniProt Q3UN04); assay: USP30 biochemical fluorescence polarization assay (mouse); settings: read-out: Mouse USP30 FP assay (IC50)
T1 construct: Mouse USP30(57-517) (Boston Biochem, #E-582M); purchased Boston Biochem E-582M
Protocol: USP30 enzyme was diluted in reaction buffer (40 mM Tris HCl, pH 7.5, 0.005% Tween 20, 0.5 mg/ml BSA, 5 mM BME) to achieve a final concentration of 8 nM for human USP30 and 10 nM for mouse USP30, the compound was added and incubated for 30 min at room temp then reactions initiated by addition of Ub-Lys-TAMRA (final conc of 50 nM). Fluorescence was measured immediately after the addition of substrate and following a 2 h incubation on Pherastar Plus or FSX with λ Excitation 540 nm and λ Emission 590 nm.

[5] = target: OTUD6B (Homo sapiens, UniProt Q8N6M0); assay: DUB/cathepsin selectivity biochemical assay
[6] = target: SENP6 (Homo sapiens, UniProt Q9GZR1); assay: DUB/cathepsin selectivity biochemical assay
[7] = tested on: AAV-A53T-SNCA PD mouse model; assay: Total αSyn and phospho-S129 αSyn immunostaining in SNpc, AAV-A53T-SNCA mouse model (compound study); assay type: in vivo
Source text: as §1

[8] = target: Trabid (Homo sapiens, UniProt Q9UGI0); assay: DUB/cathepsin selectivity biochemical assay
[9] = target: T2, VCPIP FL (Homo sapiens, UniProt Q96JH7); assay: DUB/cathepsin selectivity biochemical assay
T2 construct: VCPIP FL

[10] = target: OTUB1/UBCH5B (Homo sapiens, UniProt Q96FW1); assay: DUB/cathepsin selectivity biochemical assay
Chain of OTUB1/UBCH5B (Q96FW1 whole entry, species assumed): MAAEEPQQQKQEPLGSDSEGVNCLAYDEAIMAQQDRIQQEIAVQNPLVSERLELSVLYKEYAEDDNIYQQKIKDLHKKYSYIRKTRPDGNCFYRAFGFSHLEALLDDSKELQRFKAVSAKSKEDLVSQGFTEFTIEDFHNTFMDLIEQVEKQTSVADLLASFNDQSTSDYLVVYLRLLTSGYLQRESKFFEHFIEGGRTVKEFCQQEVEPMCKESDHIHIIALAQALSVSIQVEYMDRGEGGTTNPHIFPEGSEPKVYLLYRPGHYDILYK
Chain of OTUB1/UBCH5B (P62837 whole entry partner, species assumed): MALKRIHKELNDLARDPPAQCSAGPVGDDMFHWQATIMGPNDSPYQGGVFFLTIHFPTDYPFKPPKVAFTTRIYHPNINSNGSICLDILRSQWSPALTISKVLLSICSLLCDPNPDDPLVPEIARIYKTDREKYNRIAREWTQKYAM

[11] = target: T3, OTUD1 CD (Homo sapiens, UniProt Q5VV17); assay: DUB/cathepsin selectivity biochemical assay
T3 construct: OTUD1 CD
T3 sequence (Q5VV17 309-438 limits assumed): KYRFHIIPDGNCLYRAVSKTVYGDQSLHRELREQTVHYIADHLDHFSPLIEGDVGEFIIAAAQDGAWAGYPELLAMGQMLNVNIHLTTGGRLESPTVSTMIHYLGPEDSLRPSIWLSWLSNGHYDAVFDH

[12] = Mouse blood and prefrontal cortex microdialysis pharmacokinetics (Kpu,u); assay type: in vivo; settings: single 10 mg/kg oral dose, at the 60-min time point
Protocol: Mouse Kpu,u estimates were calculated from blood and prefrontal cortex compound profiles following oral dosing of 10 or 30 mg/kg by gavage, with sequential blood sampling from the jugular vein and sequential brain interstitial fluid sampling via a microdialysis probe in the prefrontal cortex.

[13] = target: USP16 (Homo sapiens, UniProt Q9Y5T5); assay: DUB/cathepsin selectivity biochemical assay
Chain of USP16 (Q9Y5T5 whole entry, species assumed): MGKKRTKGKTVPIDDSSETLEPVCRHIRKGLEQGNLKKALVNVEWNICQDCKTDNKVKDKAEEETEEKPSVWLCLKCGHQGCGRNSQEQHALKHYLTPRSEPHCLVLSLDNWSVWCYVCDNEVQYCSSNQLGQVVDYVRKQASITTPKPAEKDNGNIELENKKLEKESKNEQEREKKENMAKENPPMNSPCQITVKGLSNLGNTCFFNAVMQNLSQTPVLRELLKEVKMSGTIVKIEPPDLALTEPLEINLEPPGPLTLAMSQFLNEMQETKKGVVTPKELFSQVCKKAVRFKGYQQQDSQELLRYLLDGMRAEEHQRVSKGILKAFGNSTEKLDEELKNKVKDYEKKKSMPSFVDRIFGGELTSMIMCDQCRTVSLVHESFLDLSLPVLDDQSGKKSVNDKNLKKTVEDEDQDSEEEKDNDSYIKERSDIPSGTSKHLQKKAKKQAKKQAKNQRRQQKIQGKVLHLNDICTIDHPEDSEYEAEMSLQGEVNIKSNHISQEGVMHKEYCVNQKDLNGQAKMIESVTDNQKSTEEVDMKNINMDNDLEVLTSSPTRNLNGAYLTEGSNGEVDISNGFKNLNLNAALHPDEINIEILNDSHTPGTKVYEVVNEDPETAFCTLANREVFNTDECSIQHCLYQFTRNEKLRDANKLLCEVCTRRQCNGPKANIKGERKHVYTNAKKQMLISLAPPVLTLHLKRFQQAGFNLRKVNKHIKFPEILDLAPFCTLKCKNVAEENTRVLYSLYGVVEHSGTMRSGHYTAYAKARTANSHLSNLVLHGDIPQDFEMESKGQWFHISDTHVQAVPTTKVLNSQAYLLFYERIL

[14] = target: USP8 (Homo sapiens, UniProt P40818); assay: DUB/cathepsin selectivity biochemical assay
[15] = target: UchL5 (Homo sapiens, UniProt Q9Y5K5); assay: DUB/cathepsin selectivity biochemical assay
Chain of UchL5 (Q9Y5K5 whole entry, species assumed): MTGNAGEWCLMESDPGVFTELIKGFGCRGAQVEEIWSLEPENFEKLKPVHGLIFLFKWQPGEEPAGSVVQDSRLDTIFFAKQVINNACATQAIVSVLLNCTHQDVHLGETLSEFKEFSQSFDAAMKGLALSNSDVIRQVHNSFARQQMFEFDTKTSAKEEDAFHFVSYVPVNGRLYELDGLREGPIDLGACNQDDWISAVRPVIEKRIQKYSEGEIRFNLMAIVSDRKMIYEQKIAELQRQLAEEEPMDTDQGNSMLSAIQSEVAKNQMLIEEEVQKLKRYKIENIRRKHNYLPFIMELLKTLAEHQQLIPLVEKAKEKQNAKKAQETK

[16] = target: USP2 (Homo sapiens, UniProt O75604); assay: DUB/cathepsin selectivity biochemical assay
Chain of USP2 (O75604 whole entry, species assumed): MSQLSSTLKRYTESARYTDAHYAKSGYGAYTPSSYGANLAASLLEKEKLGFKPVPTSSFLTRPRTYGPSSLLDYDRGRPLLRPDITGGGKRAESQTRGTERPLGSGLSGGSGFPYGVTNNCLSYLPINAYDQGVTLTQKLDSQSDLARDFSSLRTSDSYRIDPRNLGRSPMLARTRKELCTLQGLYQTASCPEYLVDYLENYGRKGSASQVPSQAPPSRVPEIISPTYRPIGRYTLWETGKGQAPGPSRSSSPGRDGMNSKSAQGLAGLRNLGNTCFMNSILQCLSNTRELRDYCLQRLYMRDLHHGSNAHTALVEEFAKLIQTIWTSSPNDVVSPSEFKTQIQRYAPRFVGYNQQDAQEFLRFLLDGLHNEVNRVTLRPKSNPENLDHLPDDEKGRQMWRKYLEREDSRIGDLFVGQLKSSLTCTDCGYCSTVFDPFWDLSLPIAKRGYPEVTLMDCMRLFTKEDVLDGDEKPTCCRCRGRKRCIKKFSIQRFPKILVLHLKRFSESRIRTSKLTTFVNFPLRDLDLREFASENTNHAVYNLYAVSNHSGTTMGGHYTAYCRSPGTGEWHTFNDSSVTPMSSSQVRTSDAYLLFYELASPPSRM

[17] = target: USP7 (Homo sapiens, UniProt Q93009); assay: DUB/cathepsin selectivity biochemical assay
Chain of USP7 (Q93009 whole entry, species assumed): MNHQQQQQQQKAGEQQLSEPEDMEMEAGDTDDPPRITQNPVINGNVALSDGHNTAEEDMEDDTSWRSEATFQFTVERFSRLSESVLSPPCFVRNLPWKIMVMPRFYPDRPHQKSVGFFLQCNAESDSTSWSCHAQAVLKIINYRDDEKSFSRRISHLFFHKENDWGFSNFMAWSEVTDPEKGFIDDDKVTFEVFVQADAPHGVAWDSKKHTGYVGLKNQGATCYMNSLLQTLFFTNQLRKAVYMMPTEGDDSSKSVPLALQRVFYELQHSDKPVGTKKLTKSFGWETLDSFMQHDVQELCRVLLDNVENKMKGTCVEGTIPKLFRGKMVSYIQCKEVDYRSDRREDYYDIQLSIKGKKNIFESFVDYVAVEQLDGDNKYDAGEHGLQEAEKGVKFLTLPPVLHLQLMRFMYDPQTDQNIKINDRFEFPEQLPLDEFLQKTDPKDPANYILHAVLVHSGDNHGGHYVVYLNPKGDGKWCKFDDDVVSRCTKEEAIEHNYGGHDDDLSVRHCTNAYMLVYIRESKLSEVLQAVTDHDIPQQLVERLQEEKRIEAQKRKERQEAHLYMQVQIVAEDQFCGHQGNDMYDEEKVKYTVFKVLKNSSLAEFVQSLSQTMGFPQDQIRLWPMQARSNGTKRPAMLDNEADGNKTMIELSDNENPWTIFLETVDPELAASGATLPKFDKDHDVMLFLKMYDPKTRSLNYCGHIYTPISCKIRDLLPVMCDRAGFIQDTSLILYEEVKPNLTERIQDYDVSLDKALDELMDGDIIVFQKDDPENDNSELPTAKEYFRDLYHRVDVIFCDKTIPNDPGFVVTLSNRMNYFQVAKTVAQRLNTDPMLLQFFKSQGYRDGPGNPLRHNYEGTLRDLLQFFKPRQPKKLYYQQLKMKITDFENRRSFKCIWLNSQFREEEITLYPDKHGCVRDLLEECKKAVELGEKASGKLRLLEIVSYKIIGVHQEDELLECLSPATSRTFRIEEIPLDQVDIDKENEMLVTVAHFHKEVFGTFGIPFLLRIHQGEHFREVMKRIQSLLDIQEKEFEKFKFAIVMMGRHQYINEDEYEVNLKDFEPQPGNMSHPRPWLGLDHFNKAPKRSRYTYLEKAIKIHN

[18] = Mouse pharmacokinetics (IV clearance, oral bioavailability); assay type: in vivo; settings: blood
[19] = target: MINDY2 (Homo sapiens, UniProt Q8NBR6); assay: DUB/cathepsin selectivity biochemical assay
[20] = target: T4, USP34 CORE (Homo sapiens, UniProt Q70CQ2); assay: DUB/cathepsin selectivity biochemical assay
T4 construct: USP34 CORE
T4 sequence (Q70CQ2 1894-2239 limits assumed): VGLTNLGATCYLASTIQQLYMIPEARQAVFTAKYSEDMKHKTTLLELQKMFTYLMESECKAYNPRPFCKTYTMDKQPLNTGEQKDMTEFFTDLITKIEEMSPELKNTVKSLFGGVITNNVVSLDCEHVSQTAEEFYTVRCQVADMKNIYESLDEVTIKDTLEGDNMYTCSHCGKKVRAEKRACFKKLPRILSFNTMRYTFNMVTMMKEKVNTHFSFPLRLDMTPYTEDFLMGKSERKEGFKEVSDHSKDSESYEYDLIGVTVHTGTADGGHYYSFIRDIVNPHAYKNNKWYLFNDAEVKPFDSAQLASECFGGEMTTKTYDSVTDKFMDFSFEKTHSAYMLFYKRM

[21] = target: T5, SENP2 CD (Homo sapiens, UniProt Q9HC62); assay: DUB/cathepsin selectivity biochemical assay
T5 construct: SENP2 CD
T5 sequence (Q9HC62 396-560 limits assumed): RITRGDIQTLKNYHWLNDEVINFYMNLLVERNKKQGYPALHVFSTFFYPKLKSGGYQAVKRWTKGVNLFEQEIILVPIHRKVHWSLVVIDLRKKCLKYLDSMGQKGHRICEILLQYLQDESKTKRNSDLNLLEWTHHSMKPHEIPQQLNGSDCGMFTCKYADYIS

[22] = target: USP47 (Homo sapiens, UniProt Q96K76); assay: DUB/cathepsin selectivity biochemical assay
[23] = target: MINDY3 (Homo sapiens, UniProt Q9H8M7); assay: DUB/cathepsin selectivity biochemical assay
Chain of MINDY3 (Q9H8M7 whole entry, species assumed): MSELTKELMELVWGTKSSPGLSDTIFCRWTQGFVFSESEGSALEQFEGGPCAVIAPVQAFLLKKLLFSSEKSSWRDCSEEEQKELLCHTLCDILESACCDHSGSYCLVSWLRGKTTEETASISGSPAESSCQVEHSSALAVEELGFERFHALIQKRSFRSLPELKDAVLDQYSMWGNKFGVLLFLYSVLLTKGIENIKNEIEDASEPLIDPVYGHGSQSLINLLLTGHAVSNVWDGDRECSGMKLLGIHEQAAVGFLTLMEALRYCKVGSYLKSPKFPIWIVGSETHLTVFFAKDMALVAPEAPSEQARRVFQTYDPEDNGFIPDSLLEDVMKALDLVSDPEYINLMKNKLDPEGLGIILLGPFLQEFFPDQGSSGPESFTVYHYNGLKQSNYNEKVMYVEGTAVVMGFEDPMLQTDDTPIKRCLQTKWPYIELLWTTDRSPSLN

[24] = target: YOD1 (Homo sapiens, UniProt Q5VVQ6); assay: DUB/cathepsin selectivity biochemical assay
Chain of YOD1 (Q5VVQ6 whole entry, species assumed): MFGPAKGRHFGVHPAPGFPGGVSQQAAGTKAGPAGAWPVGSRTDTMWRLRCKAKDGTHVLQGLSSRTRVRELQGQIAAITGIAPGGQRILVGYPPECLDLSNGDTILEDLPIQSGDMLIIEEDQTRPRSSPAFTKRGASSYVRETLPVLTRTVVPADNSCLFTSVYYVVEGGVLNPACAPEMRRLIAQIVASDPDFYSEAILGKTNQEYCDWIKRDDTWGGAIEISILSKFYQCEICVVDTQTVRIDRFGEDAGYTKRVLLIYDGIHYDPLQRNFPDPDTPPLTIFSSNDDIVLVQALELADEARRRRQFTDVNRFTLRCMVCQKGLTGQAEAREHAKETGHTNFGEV

[25] = target: USP25 (Homo sapiens, UniProt Q9UHP3); assay: DUB/cathepsin selectivity biochemical assay
[26] = target: OTUD6A (Homo sapiens, UniProt Q7L8S5); assay: DUB/cathepsin selectivity biochemical assay
[27] = AAV-A53T + MTX115325 (50 mg/kg), Group 5, Left hemisphere, individual animal values (Animal ID in r3)
[28] = AAV-A53T + MTX115325 (50 mg/kg), Group 5, Right hemisphere, individual animal values (Animal ID in r3)

C[C@@H]1[C@H]2CCN(C(=O)c3ncc(-c4ccnc(C#N)c4)o3)[C@H]2CN1C#N [MTX115325]
IC50 [1]: > 300 µM | Tolerability (clinical observations, pathology) [2]: well tolerated with no adverse clinical observations or pathology findings | Total GFAP stained area ([3]; 50 mg/kg, SNpc): significantly decreased | Figure S7b immunostaining quantification, Left [3, 27]: 1.3107 and 1.822 and 1.54 and 1.4872 and 0.5058 and 0.5702 and 1.26 and 0.5434 and 3.27 and 0.3697 and 0.5693 and 0.3721 and 1.3682 | Figure S7b immunostaining quantification, Right [3, 28]: 5.052 and 9.289 and 2.625 and 1.026 and 0.413 and 0.7794 and 1.305 and 0.7197 and 2.306 and 0.4784 and 1.89 and 0.7362 and 2.027 | Figure S7a immunostaining, Left ([3]; Group 5: AAV-A53T + MTX115325 (50 mg/kg), Left side, individual animals): 7.176 and 11.087 and 12.7517 and 7.21 and 7.515 and 4.054 and 9.929 and 4.978 and 8.49 and 4.199 and 4.24 and 6.399 and 9.051 | Figure S7a immunostaining, Right ([3]; Group 5: AAV-A53T + MTX115325 (50 mg/kg), Right side, individual animals): 24.0437 and 23.3177 and 16.4732 and 6.609 and 8.915 and 4.627 and 11.7034 and 7.051 and 10.4594 and 5.626 and 7.142 and 6.872 and 11.3579 | IC50 [4]: 0.013 µM | IC50 [5]: > 300 µM | IC50 [6]: > 300 µM | Phosphorylated S129-αSyn ([7]; 50 mg/kg, SNpc): significantly reduced | Figure S7c immunostaining quantification, Left [7, 27]: 0 (7×) and 0.04487 and 0.008105 and 0.007836 and 0.01908 and 0.009848 and 0.001515 and 0.003247 and 0.005828 | Figure S7d immunostaining quantification, Left [7, 27]: 0 (10×) and 1.603 and 0.7671 and 1.12 and 0.7902 | Figure S7c immunostaining quantification, Right [7, 28]: 0.007974 and 0.07707 and 0.1923 and 0.06947 and 0.001983 and 0 (5×) and 0.06633 and 0.1857 and 0.01165 and 0.002029 and 6.4046e-5 | Figure S7d immunostaining quantification, Right [7, 28]: 57.3627 and 99.9359 and 9.299 and 6.893 and 1.412 and 0 (4×) and 0.2913 and 18.3383 and 84.6359 and 0.2072 and 0.6527 | IC50 [8]: > 300 µM | IC50 [9]: > 300 µM | IC50 [10]: > 300 µM | IC50 [11]: > 300 µM | Prefrontal cortex free CMax [12]: 528 nM | IC50 [13]: 83.7 µM | IC50 [14]: > 300 µM | IC50 [15]: > 300 µM | IC50 ([16]; Supplementary Fig. 6a, read-out: Selectivity vs DUBs (IC50), USP2): 24.9 µM | IC50 ([16]; USP2, read-out: IC50): 24.9 µM | IC50 [17]: > 300 µM | bioavailability ([18]; 10 mg/kg oral gavage vs 2 mg/kg IV): 98% | clearance ([18]; IV 2 mg/kg): 1.18 L/h/kg | IC50 [19]: > 300 µM | IC50 [20]: > 300 µM | IC50 [21]: > 300 µM | IC50 [22]: 212 µM | IC50 [23]: > 300 µM | IC50 [24]: > 300 µM | IC50 [25]: 93.2 µM | IC50 [26]: > 300 µM
